How the values were obtained:
Experiment in all cases: combination Emax (second highest fraction inhibited in the dose matrix, 72 h); higher = more inhibition; extreme values may be limits of the assay
[1] = system: PA-TU-8902 (Pancreatic Carcinoma)
Procedure, shortened: (§1)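 After 24 hours at 37°C and 5% CO2 in 1536-well plates, cells in DMEM/F12 or RPMI plus 10% FBS received two-drug dose matrices for 72 hours. Viability came from CellTiter-Glo 2.0 luminescence and was scaled as inhibition, anchored at 0 by vehicle wells and at 1 by blank wells. Combination Emax is taken as the second-highest inhibition in the matrix, and Bliss excess as the observed combination effect less EA + EB − EA·EB, with EA and EB the single-agent effects.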

HuO9 (Osteosarcoma) = system: HuO9 (Osteosarcoma)
Procedure, shortened: as §1

[2] = system: RCC10RGB (Kidney Carcinoma)
Procedure, shortened: as §1

D-392MG (Glioblastoma) = system: D-392MG (Glioblastoma)
Procedure, shortened: as §1

[3] = system: HOP-92 (Non-Small Cell Lung Carcinoma)
Procedure, shortened: as §1

[4] = system: U-118-MG (Low Grade Glioma)
Procedure, shortened: as §1

[5] = system: HLE (Hepatocellular Carcinoma)
Procedure, shortened: as §1

[6] = system: KG-1 (Acute Myeloid Leukemia)
Procedure, shortened: as §1

[7] = system: SKN-3 (Head and Neck Carcinoma)
Procedure, shortened: as §1

[8] = system: NOMO-1 (Acute Myeloid Leukemia)
Procedure, shortened: as §1

Saos-2 (Osteosarcoma) = system: Saos-2 (Osteosarcoma)
Procedure, shortened: as §1

[9] = system: CAL-39 (Other Solid Carcinomas)
Procedure, shortened: as §1

[10] = system: SNU-61 (Colorectal Carcinoma)
Procedure, shortened: as §1

[11] = system: EFM-192A (Breast Carcinoma)
Procedure, shortened: as §1

[12] = system: HCT-116 (Colorectal Carcinoma)
Procedure, shortened: as §1

[13] = system: P31-FUJ (Acute Myeloid Leukemia)
Procedure, shortened: as §1

[14] = system: GDM-1 (Acute Myeloid Leukemia)
Procedure, shortened: as §1

[15] = system: YT (Other Blood Carcinomas)
Procedure, shortened: as §1

[16] = system: BICR78 (Oral Cavity Carcinoma)
Procedure, shortened: as §1

[17] = system: NCI-H1688 (Small Cell Lung Carcinoma)
Procedure, shortened: as §1

Compound	combination Emax [1]	combination Emax (HuO9 (Osteosarcoma))	combination Emax [2]	combination Emax (D-392MG (Glioblastoma))	combination Emax [3]	combination Emax [4]	combination Emax [5]	combination Emax [6]	combination Emax [7]	combination Emax [8]	combination Emax (Saos-2 (Osteosarcoma))	combination Emax [9]	combination Emax [10]	combination Emax [11]	combination Emax [12]	combination Emax [13]	combination Emax [14]	combination Emax [15]	combination Emax [16]	combination Emax [17]
CCN(CCO)CCCOc1ccc2c(Nc3cc(CC(=O)Nc4cccc(F)c4)[nH]n3)ncnc2c1 [AZD2811] + O=C(c1cc(Cc2n[nH]c(=O)c3ccccc23)ccc1F)N1CCN(C(=O)C2CC2)CC1 [Olaparib] (first compound max 1 µM, 7x7, partner max 10 µM)	0.187	0.293	0.211	0.174	0.363	0.377	0.409	0.37	0.0796	0.396	0.456	0.324	0.171	0.212	0.452	0.83	0.818	0.309	0.285	0.196
CN(CCO)CC[C@H](CSc1ccccc1)Nc1ccc(S(=O)(=O)NC(=O)c2ccc(N3CCC([C@@H](O)c4ccccc4-c4ccc(Cl)cc4)CC3)cc2)cc1S(=O)(=O)C(F)(F)F [AZD4320] + C1CN(CCC1(C(=O)N[C@@H](CCO)C2=CC=C(C=C2)Cl)N)C3=NC=NC4=C3C=CN4 [Capivasertib] (first compound max 1 µM, 7x7, partner max 3 µM)	0.156	0.873	0.237	0.189	0.891	0.497	0.274	0.929	0.062	0.51	0.399	0.286	0.053	0.418	0.146	0.869	0.991	0.212	0.244	0.575
CN(CCO)CC[C@H](CSc1ccccc1)Nc1ccc(S(=O)(=O)NC(=O)c2ccc(N3CCC([C@@H](O)c4ccccc4-c4ccc(Cl)cc4)CC3)cc2)cc1S(=O)(=O)C(F)(F)F [AZD4320] + C=CCn1c(=O)c2cnc(Nc3ccc(N4CCN(C)CC4)cc3)nc2n1-c1cccc(C(C)(C)O)n1 [AZD1775] (first compound max 1 µM, partner max 1 µM)	0.296	0.949	0.552	0.763	0.974	0.376	0.871	1	0.368	0.97	0.707	0.345	0.349	0.302	0.572	0.983	1	0.88	0.304	0.87
CN(CCO)CC[C@H](CSc1ccccc1)Nc1ccc(S(=O)(=O)NC(=O)c2ccc(N3CCC([C@@H](O)c4ccccc4-c4ccc(Cl)cc4)CC3)cc2)cc1S(=O)(=O)C(F)(F)F [AZD4320] + CCN(CCO)CCCOc1ccc2c(Nc3cc(CC(=O)Nc4cccc(F)c4)[nH]n3)ncnc2c1 [AZD2811] (first compound max 1 µM, 7x7, partner max 1 µM)	0.189	0.728	0.133	0.729	0.968	0.487	0.721	0.966	0.0584	0.76	0.77	0.397	0.126	0.172	0.748	0.954	1	0.196	0.313	0.723
CN(CCO)CC[C@H](CSc1ccccc1)Nc1ccc(S(=O)(=O)NC(=O)c2ccc(N3CCC([C@@H](O)c4ccccc4-c4ccc(Cl)cc4)CC3)cc2)cc1S(=O)(=O)C(F)(F)F [AZD4320] + CN(C)CCCOc1ccc(-c2ccc3ncc4c(c3c2)n(C2CCOCC2)c(=O)n4C)cn1 [AZD0156] (first compound max 1 µM, 7x7, partner max 1 µM)	0.0883	0.79	0.243	0.218	0.899	0.388	0.399	0.952	0.102	0.377	0.193	0.181	0.11	0.234	0.167	0.814	1	0.623	0.134	0.487
CN(CCO)CC[C@H](CSc1ccccc1)Nc1ccc(S(=O)(=O)NC(=O)c2ccc(N3CCC([C@@H](O)c4ccccc4-c4ccc(Cl)cc4)CC3)cc2)cc1S(=O)(=O)C(F)(F)F [AZD4320] + C[C@@H]1COCCN1C2=NC(=NC(=C2)C3(CC3)[S@](=N)(=O)C)C4=C5C=CNC5=NC=C4 [AZD6738] (first compound max 1 µM, 7x7, partner max 10 µM)	0.341	0.956	0.492	0.792	0.976	0.878	0.871	1	0.546	0.972	0.673	0.619	0.365	0.349	0.778	0.994	1	0.811	0.774	0.728
CN(CCO)CC[C@H](CSc1ccccc1)Nc1ccc(S(=O)(=O)NC(=O)c2ccc(N3CCC([C@@H](O)c4ccccc4-c4ccc(Cl)cc4)CC3)cc2)cc1S(=O)(=O)C(F)(F)F [AZD4320] + C[C@@H](Nc1cc(F)cc(F)c1)c1cc(C(=O)N(C)C)cc2c(=O)cc(N3CCOCC3)oc12 [AZD8186] (first compound max 1 µM, 7x7, partner max 3 µM)	0.387	0.953	0.507	0.649	0.967	0.812	0.48	0.953	0.277	0.636	0.478	0.41	0.162	0.345	0.686	0.543	1	0.676	0.446	0.484
CN(CCO)CC[C@H](CSc1ccccc1)Nc1ccc(S(=O)(=O)NC(=O)c2ccc(N3CCC([C@@H](O)c4ccccc4-c4ccc(Cl)cc4)CC3)cc2)cc1S(=O)(=O)C(F)(F)F [AZD4320] + Cc1cc2ncnn2cc1Nc1ncc2c(n1)n(C1CCOCC1)c(=O)n2C [AZD7648] (first compound max 1 µM, 7x7, partner max 10 µM)	0.144	0.77	0.265	0.169	0.891	0.351	0.33	0.966	0.0826	0.475	0.21	0.371	0.107	0.226	0.229	0.858	0.982	0.675	0.198	0.617
CN(CCO)CC[C@H](CSc1ccccc1)Nc1ccc(S(=O)(=O)NC(=O)c2ccc(N3CCC([C@@H](O)c4ccccc4-c4ccc(Cl)cc4)CC3)cc2)cc1S(=O)(=O)C(F)(F)F [AZD4320] + Cn1cnc2c(F)c(Nc3ccc(Br)cc3Cl)c(C(=O)NOCCO)cc21 [Selumetinib] (first compound max 1 µM, 7x7, partner max 3 µM)	0.7	0.979	0.576	0.483	0.963	0.842	0.504	0.971	0.355	1	0.517	0.604	0.512	0.284	0.709	0.901	1	0.737	0.508	0.468
COc1nnc2ccc(N3CCC(c4ccc(OCCN5CCN(C)C(=O)[C@H]5C)cc4)CC3)nn12 [AZD5153] + C=CCn1c(=O)c2cnc(Nc3ccc(N4CCN(C)CC4)cc3)nc2n1-c1cccc(C(C)(C)O)n1 [AZD1775] (first compound max 1 µM, partner max 1 µM)	0.502	0.919	0.686	0.497	0.406	0.467	0.61	0.861	0.634	0.983	0.854	0.788	0.601	0.391	0.788	0.97	0.961	0.917	0.482	0.707
COc1nnc2ccc(N3CCC(c4ccc(OCCN5CCN(C)C(=O)[C@H]5C)cc4)CC3)nn12 [AZD5153] + CC1(C)CCC(CN2CCN(c3ccc(C(=O)NS(=O)(=O)c4ccc(NCC5CCOCC5)c([N+](=O)[O-])c4)c(Oc4cnc5[nH]ccc5c4)c3)CC2)=C(c2ccc(Cl)cc2)C1 [Venetoclax] (first compound max 1 µM, 7x7, partner max 1 µM)	0.275	0.796	0.539	0.45	0.362	0.367	0.336	1	0.467	1	0.535	0.631	0.389	0.326	0.666	0.974	1	0.714	0.468	0.384
